Assay results taken from the METLIN SMRT retention time set (Domingo-Almenara et al. 2019).

Experiment: gradient 5% acetonitrile 3 min, to 50% in 2 min, to 85% in 15 min, held 3 min, 100 µL/min
Settings: column: Zorbax Extend-C18 2.1 x 50 mm; eluents: water / acetonitrile, 0.1% formic acid
Procedure, shortened: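 Retention times of pure standards were taken from adduct peaks that were selected by computer and manually inspected. Over 3 months, mixtures of ~100 molecules were run by HPLC–quadrupole time-of-flight mass spectrometry in positive and negative ionization mode. The Zorbax Extend-C18 column (2.1 × 50 mm, 1.8 μm) ran at 100 μL/min in water and acetonitrile, each containing 0.1% formic acid, with 40 μL dead volume and 900 μL dwell volume.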

O=C(NCCc1ccccc1)N1CCN(CCn2c(-c3ccncc3)nc3cccnc32)CC1
RP-LC retention time: 593 s

O=C(NC1CCCC1)c1ccc2c(c1)CC(=O)N2Cc1ccc(F)cc1
RP-LC retention time: 824 s

O=S(=O)(c1cccnc1)N1CC(F)(F)C[C@H]1c1nc(C2CC2)no1
RP-LC retention time: 815 s

COc1ccc(S(=O)(=O)CCc2noc(C(=O)NCCc3ccc(SC)cc3)n2)cc1
RP-LC retention time: 930 s

O=C(Nc1cccc(-c2ccccc2)c1)N1CCN(C(=O)Nc2cccc(-c3ccccc3)c2)CC1
RP-LC retention time: 980 s

COc1cc(OC)c(OC)cc1CN1C[C@@H]2C(=O)N(C)C(=O)[C@@H]2C1
RP-LC retention time: 570 s

COc1ccccc1CNC(=O)C1CCc2nc(N3CCCCC3)ncc2C1 (centres undefined)
RP-LC retention time: 755 s

Cc1ccc(CNC(=O)C2(C)CCCN(C(=O)Nc3ccc(C)c(F)c3)C2)cc1 (centres undefined)
RP-LC retention time: 857 s

Cc1ccc(CC(=O)NC2CCN(c3ccccc3)C2=O)cc1 (centres undefined)
RP-LC retention time: 797 s

CNC(=O)c1ccc(-n2c(C)ccc2C)nc1
RP-LC retention time: 697 s

CC(=O)N(Cc1nn(C)c2c1CN(S(=O)(=O)c1ccccc1F)CC2)c1ccccc1
RP-LC retention time: 779 s

Cc1sc(NC(=O)C2CCCCC2)nc1-c1ccc2c(c1)N(C)C(=O)CO2
RP-LC retention time: 1040 s

Cc1ccc(Nc2nc(C(=O)N3CCN(S(C)(=O)=O)CC3)cs2)c(C)c1
RP-LC retention time: 752 s

O=C(NCC1CN(c2ccc3c(c2)OCO3)C(=O)O1)c1ccccc1C(F)(F)F (centres undefined)
RP-LC retention time: 880 s

CCOCCCNC(=O)c1nc(Nc2ccc(CC)cc2)c2ccccc2n1
RP-LC retention time: 813 s

Cc1ccc(C(=O)NCCc2nc3cccnc3n2CC(C)C)cc1
RP-LC retention time: 716 s

CCCC(NC(=O)CCc1ccccc1)C(=O)Nc1nc2ccccc2[nH]1 (centres undefined)
RP-LC retention time: 718 s

CO[C@H]1C(=O)N(C(C)C)[C@H]1C1CCN(C(=O)C2CC2)CC1
RP-LC retention time: 657 s

Cc1ccc2c(c1)c1ncn(Cc3nc(C(C)C)no3)c(=O)c1n2CC(=O)N1CCCC1
RP-LC retention time: 818 s

Cc1cccc(CNS(=O)(=O)c2ccc3c(c2)C(=O)N(C)c2ncccc2O3)c1
RP-LC retention time: 886 s

COc1ccc2c(c1)C1(CCN(C(=O)Nc3ccccc3OC)C1)C(=O)N2 (centres undefined)
RP-LC retention time: 722 s

Cc1ccc(C)c(S(=O)(=O)N2CC=C(c3cn(C)c4ncccc34)CC2)c1
RP-LC retention time: 1070 s

COCc1nc2cccnc2n1C1CCN(C(=O)Nc2ccc(Br)cc2F)CC1
RP-LC retention time: 746 s

CN(C)c1ccc(C(=O)Nc2cc(-c3cccs3)no2)cc1
RP-LC retention time: 972 s

CC1(C)C(=O)N(CC(=O)Nc2ccc(F)cc2)c2ccccc21
RP-LC retention time: 866 s

O=C(NCCc1ccccc1)Nc1cnc2c(c1)CCC2
RP-LC retention time: 536 s

COCC(C)(O)CNC(=O)c1cn(C)nc1OC (centres undefined)
RP-LC retention time: 561 s

Cc1noc(C)c1CC(=O)NCC1Cn2cccc2C(=O)N1C (centres undefined)
RP-LC retention time: 598 s

O=C(c1cc(C2CC2)n(C2CCS(=O)(=O)C2)n1)N1CCc2ccccc21 (centres undefined)
RP-LC retention time: 768 s

CSc1ccc(Cl)c(C(=O)Nc2cccn3c(C)nnc23)c1
RP-LC retention time: 759 s

CCc1ccc(CNC(=O)C2CCc3nc(N4CCOCC4)ncc3C2)cc1 (centres undefined)
RP-LC retention time: 802 s

COc1ccc(NC(=O)C2CCN(c3cncnc3N3CCOCC3)CC2)cc1
RP-LC retention time: 605 s

Cn1ncc(N2CCC(C(=O)NC3CCCC3)C2)cc1=O (centres undefined)
RP-LC retention time: 630 s

Cc1noc(-c2ccc(-n3ncc(C(=O)N4CCN(c5ccccn5)CC4)c3C)nc2)n1
RP-LC retention time: 624 s

COc1cccc(CNC(=O)C2(C)CCCN(C(=O)Nc3ccc(C)c(Cl)c3)C2)c1 (centres undefined)
RP-LC retention time: 982 s

O=C1CC(c2nc(-c3cccc(C(F)(F)F)c3)no2)CN1c1ccc2c(c1)OCO2 (centres undefined)
RP-LC retention time: 1020 s

COc1ccc2c(c1)CC(C(=O)NCc1ccc(OC)cc1OC)CO2 (centres undefined)
RP-LC retention time: 894 s

CCCNC(=O)Cn1c(=O)c2cccn2c2ccc(F)cc21
RP-LC retention time: 729 s

COCC(=O)N(C1CCOCC1)C1CCN(S(=O)(=O)c2ccccc2F)CC1
RP-LC retention time: 740 s

CN1CCC(OC(c2ccccc2)c2ccccc2)CC1
RP-LC retention time: 760 s

O=C(c1nnn(Cc2ccc(Cl)cc2)c1-n1cccc1)N1CCCC1
RP-LC retention time: 915 s

O=c1c2oc3ccccc3c2ncn1Cc1nc(-c2ccc(OC(F)(F)F)cc2)no1
RP-LC retention time: 1050 s

Cc1ccc(CSc2nnc3c(S(=O)(=O)N4CCCCC4)cccn23)cc1
RP-LC retention time: 928 s

Cc1cc(C)cc(NC(=O)N2CCC(OC3CCN(S(C)(=O)=O)CC3)CC2)c1
RP-LC retention time: 718 s

CN1CCN(c2nc3c(c(Nc4ccccc4)n2)C(=O)CC(C)(C)C3)CC1
RP-LC retention time: 713 s

Nc1nc2ccc(Cl)cc2c2nc(-c3ccco3)nn12
RP-LC retention time: 755 s

CCn1cc(C(=O)Nc2ccc(Cl)cc2)c(S(=O)(=O)N2CCSCC2)n1
RP-LC retention time: 892 s

CC1CCN(S(=O)(=O)c2ccc3nn(Cc4cccc(F)c4)c(=O)n3c2)CC1
RP-LC retention time: 781 s

CCN1CCN(c2c(S(=O)(=O)c3ccc(C)c(C)c3)cnc3ccc(OC)cc23)CC1
RP-LC retention time: 679 s

CCOc1ccc(NC(=O)Cc2csc3nc(-c4ccccc4)cn23)cc1
RP-LC retention time: 815 s

CCOc1ccccc1NC(=O)Cn1c(N2CCOCC2)nc(COC)cc1=O
RP-LC retention time: 967 s

CCc1ccc(/C=C2/SC(=S)NC2=O)cc1
RP-LC retention time: 1070 s

O=C(COc1ccc(Cl)cc1Cl)NCC1CCN(C(=O)c2ccccc2F)CC1
RP-LC retention time: 858 s

CC(C)NCC(O)COc1ccc(Br)cc1Br (centres undefined)
RP-LC retention time: 586 s

O=C(N[C@H]1C[C@@H]2C[C@H]1N(S(=O)(=O)c1ccc3c(c1)CCC3)C2)c1cccs1
RP-LC retention time: 943 s

O=c1ccn(-c2cccc(F)c2)nc1-c1nc(-c2ccc3c(c2)OCO3)no1
RP-LC retention time: 846 s

O=C(NCCN1CCN(C(=O)NCCCc2ccccc2)CC1)c1ccc2c(c1)OCO2
RP-LC retention time: 581 s

O=C(Nc1ccc(F)cc1)C1CCCN(c2ccc3cc(S(=O)(=O)N4CCCC4)ccc3n2)C1 (centres undefined)
RP-LC retention time: 634 s

O=C(CN1C(=O)CSc2cccn2-c2ccccc21)NCCC1=CCCCC1
RP-LC retention time: 1030 s

Cc1cccc2c(=O)n(C3CCN(C(=O)Nc4ccc5c(c4)OCCO5)CC3)cnc12
RP-LC retention time: 766 s

COc1ccc(S(=O)(=O)Nc2cccn3c(C4CCC4)nnc23)cc1Cl
RP-LC retention time: 822 s

CCOc1ccc(-c2nc(Cn3nnc(C(=O)NCc4ccc(OC)cc4)c3N)c(C)o2)cc1OC
RP-LC retention time: 922 s

Cc1ccc(-n2c(N3CCCC(C(=O)NC(C)c4cccnc4)C3)nc3ccsc3c2=O)cc1 (centres undefined)
RP-LC retention time: 633 s

O=C(NCCC1=CCCCC1)c1ccc2ncnc(N3CCCC3)c2c1
RP-LC retention time: 688 s

Cc1ccc2c(c1)N(S(C)(=O)=O)CCC(C(=O)Nc1ccc(F)cc1)O2 (centres undefined)
RP-LC retention time: 930 s

Cc1cc(N2CCN(S(=O)(=O)c3cccc(F)c3)CC2)nc(NC2CCCCC2)n1
RP-LC retention time: 797 s

Cc1ccc(NC(=O)N2CCCC2c2nc(-c3ccccc3C)no2)cc1C (centres undefined)
RP-LC retention time: 593 s

COc1cccc(CNC(=O)c2cc3cn(C4CC4)cc3s2)c1OC
RP-LC retention time: 507 s

O=C(NCc1cc(F)ccc1F)C1CCN(c2cncnc2N2CCOCC2)CC1
RP-LC retention time: 619 s

COc1cc2c(cc1CNC(=O)C1CC1)OCCCO2
RP-LC retention time: 709 s

CC(C(=O)N1CCN(C)CC1)n1c2ccccc2c2cnn(C)c(=O)c21 (centres undefined)
RP-LC retention time: 612 s

CN(CCc1noc(COc2ccc(F)cc2)n1)C(=O)Nc1ccc(F)c(Cl)c1
RP-LC retention time: 953 s

CC(C)Cn1nc2c(S(=O)(=O)N3CCOCC3)cccn2c1=O
RP-LC retention time: 707 s

CCN(C(=O)C1CCCN(S(=O)(=O)c2cc(-c3noc(C)n3)cs2)C1)c1ccccc1 (centres undefined)
RP-LC retention time: 983 s

c1ccc(N2CCN(Cc3nc(-c4ccc(N5CCSCC5)nc4)no3)CC2)cc1
RP-LC retention time: 937 s

Cc1ccc(-c2coc(-c3ccc(NC(=O)Cc4cccs4)cc3)n2)c(C)c1
RP-LC retention time: 1330 s

O=C(NC1CC1)[C@@H]1C[C@H](Oc2ccccc2)CN1C(=O)CCc1c[nH]c2ccccc12
RP-LC retention time: 792 s

O=C(Cn1c(=O)c(S(=O)(=O)c2ccccc2)cc2ccccc21)NC1CCCC1
RP-LC retention time: 840 s

COC(=O)c1cccc(NC(=O)c2c(O)c3cccnc3n(-c3ccc(F)cc3)c2=O)c1
RP-LC retention time: 1190 s

O=C1CCCc2c1cc(C(=O)N1CCCCC1)c(=O)n2-c1ccc(F)cc1
RP-LC retention time: 704 s

Cc1nc(-c2csc(S(=O)(=O)N3CCCC(C(=O)Nc4ccc(F)cc4)C3)c2)no1 (centres undefined)
RP-LC retention time: 946 s

CCN1C(=O)c2c(C(=O)NCCc3ccc(C)cc3)ncn2CC1(C)C(=O)NC1CCCC1 (centres undefined)
RP-LC retention time: 779 s

O=C(Nc1ccc(F)c(Cl)c1)N1CCC(OC2CCN(Cc3ccccc3)CC2)CC1
RP-LC retention time: 710 s

CCOC(=O)CSc1nc2c(sc3ccccc32)c(=O)n1Cc1ccco1
RP-LC retention time: 1040 s

Cc1nnc(C2CCCCCN2C(=O)c2cnco2)o1 (centres undefined)
RP-LC retention time: 618 s

CC1=C(c2ccc(C)cc2)S(=O)(=O)N=C1N1CCCN(C(=O)CC2CCCCC2)CC1
RP-LC retention time: 962 s

CC(NC(=O)c1ccc2c(c1)nc1n2CCN(C2CCCCC2)C1=O)c1ccccc1 (centres undefined)
RP-LC retention time: 836 s

Cc1ccc(CC(=O)N2CCc3nc(-c4ccc(Cl)cc4)ncc3C2)cc1
RP-LC retention time: 1150 s

CCc1nn(CC)c(=O)c2cc(S(=O)(=O)NCc3cccc(Cl)c3)cn12
RP-LC retention time: 982 s
